Paper PMC5681660, “Reduced hepatitis B and D viral entry using clinically applied drugs as novel inhibitors of the bile acid transporter NTCP” (Scientific Reports, 2017)
Counter-ions that a name gives are not always drawn.

Biological target: T1, human NTCP (Homo sapiens, UniProt Q14973)
T1 sequence (Q14973 1-349): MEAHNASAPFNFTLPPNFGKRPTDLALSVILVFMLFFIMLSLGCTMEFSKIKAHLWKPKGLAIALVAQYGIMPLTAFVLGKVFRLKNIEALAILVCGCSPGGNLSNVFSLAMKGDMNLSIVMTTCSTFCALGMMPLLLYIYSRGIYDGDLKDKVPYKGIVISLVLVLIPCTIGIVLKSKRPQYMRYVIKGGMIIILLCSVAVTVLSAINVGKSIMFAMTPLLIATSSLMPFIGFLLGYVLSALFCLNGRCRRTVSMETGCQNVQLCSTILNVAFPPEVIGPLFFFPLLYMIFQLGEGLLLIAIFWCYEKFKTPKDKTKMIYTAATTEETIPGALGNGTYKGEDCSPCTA
Assay: Screening taurocholate uptake assay (96-well, [14C]taurocholate, 10 µM drug)
Conditions: for B-score functional assay: screening taurocholate uptake, 10 µM drug

[1] = combined ranking of functional and binding screening assays
[2] = ranking over the functional and the binding screening assay

CN1CCCC(CC2c3ccccc3Sc3ccccc32)C1 (centres unmarked) [Metixene hydrochloride]
Ranking score [1]: 516.538 | B-score functional assay: 0.08

CCN(CC)CCNC(=O)c1cc(Cl)c(N)cc1OC.Cl [Metoclopramide monohydrochloride]
Ranking score [1]: 1141.61 | B-score functional assay (B-score): 0.859

Cc1cccc(C)c1OCC(C)N (centres unmarked) [Mexiletine hydrochloride]
Ranking score [1]: 487.63 | B-score functional assay: -0.898

Clc1ccc(COC(Cn2ccnc2)c2ccc(Cl)cc2Cl)c(Cl)c1 (centres unmarked) [Miconazole]
Ranking score [2]: 240.998 | B-score functional assay: -2.763

CC#C[C@]1(O)CC[C@H]2[C@@H]3CCC4=CC(=O)CCC4=C3[C@@H](c3ccc(N(C)C)cc3)C[C@@]21C [Mifepristone]
Ranking score [2]: 246.499 | B-score functional assay: -2.267

OCCN1C[C@H](O)[C@@H](O)[C@H](O)[C@H]1CO [Miglitol]
Ranking score [1]: 510.427 | B-score functional assay: -1.145

Nc1cc(N2CCCCC2)nc(N)[n+]1[O-] [Minoxidil]
Ranking score [2]: 87.241 | B-score functional assay: -3.894

CN1CCN2c3ncccc3Cc3ccccc3C2C1 (centres unmarked) [Mirtazapine]
Ranking score [1]: 576.426 | B-score functional assay: 0.174

NC(=O)C[S+]([O-])C(c1ccccc1)c1ccccc1 (centres unmarked) [Modafinil]
Ranking score [1]: 485.699 | B-score functional assay: 2.253

CCOC(=O)[N-]c1cn(N2CCOCC2)n[o+]1 [Molsidomine]
Ranking score [1]: 467.403 | B-score functional assay: 0.63

C[C@@H]1C[C@H]2[C@@H]3CCC4=CC(=O)C=C[C@]4(C)[C@@]3(Cl)[C@@H](O)C[C@]2(C)[C@@]1(OC(=O)c1ccco1)C(=O)CCl [Mometasone furoate]
Ranking score [2]: 101.489 | B-score functional assay: -0.4

CC[C@@]1([C@H]2O[C@H]([C@H]3O[C@@](O)(CO)[C@H](C)C[C@@H]3C)C[C@H]2C)CC[C@H]([C@@]2(C)CC[C@]3(C[C@H](O)[C@@H](C)[C@@H]([C@H](C)[C@H](OC)[C@@H](C)C(=O)[O-])O3)O2)O1.[Na+] [Monensin sodium salt]
Ranking score [2]: 257.93 | B-score functional assay: -1.407

Oc1ccc(OCc2ccccc2)cc1 [Monobenzone]
Ranking score [1]: 560.227 | B-score functional assay: -0.057

CC(C)(O)c1ccccc1CC[C@@H](SCC1(CC(=O)O)CC1)c1cccc(/C=C/c2ccc3ccc(Cl)cc3n2)c1 [Montelukast]
Ranking score [2]: 55.3173 | B-score functional assay: -3.762

CCOC(=O)Nc1ccc2c(c1)N(C(=O)CCN1CCOCC1)c1ccccc1S2 [Moricizine hydrochloride]
Ranking score [1]: 1215.96 | B-score functional assay (B-score): 2.078

CO[C@@]1(NC(=O)C(C(=O)O)c2ccc(O)cc2)C(=O)N2C(C(=O)O)=C(CSc3nnnn3C)CO[C@@H]21 (some centres unmarked) [Moxalactam disodium salt]
Ranking score [1]: 623.639 | B-score functional assay: -0.667

CNc1ncnc2c1ncn2[C@@H]1O[C@H](CO)[C@@H](O)[C@H]1O [N6-methyladenosine]
Ranking score [1]: 568.625 | B-score functional assay: 0.107

CC(=O)N[C@@H](CC(C)C)C(=O)O [N-Acetyl-L-leucine]
Ranking score [1]: 463.866 | B-score functional assay: -1.591

NC(=O)c1ccc[n+]([C@@H]2O[C@H](COP(=O)([O-])OP(=O)(O)OC[C@H]3O[C@@H](n4cnc5c(N)ncnc54)[C@H](O)[C@@H]3O)[C@@H](O)[C@H]2O)c1 [Nadide]
Ranking score [1]: 475.971 | B-score functional assay: 0.371

CC1CCc2c(N3CCC(O)CC3)c(F)cc3c(=O)c(C(=O)O)cn1c23 (centres unmarked) [Nadifloxacin]
Ranking score [1]: 1251.94 | B-score functional assay (B-score): 3.94

CCOc1ccc2ccccc2c1C(=O)N[C@@H]1C(=O)N2[C@@H]1SC(C)(C)[C@@H]2C(=O)O [Nafcillin sodium salt monohydrate]
Ranking score [2]: 223.052 | B-score functional assay: 0.036

CCN(CC)CCOC(=O)C(Cc1cccc2ccccc12)CC1CCCO1 (centres unmarked) [Nafronyl oxalate]
Ranking score [1]: 488.941 | B-score functional assay: -1.268

CCn1cc(C(=O)[O-])c(=O)c2ccc(C)nc21.[Na+] [Nalidixic acid sodium salt]
Ranking score [1]: 500.32 | B-score functional assay: -0.033

C=C1CC[C@@]2(O)[C@H]3Cc4ccc(O)c5c4[C@@]2(CCN3CC2CC2)[C@H]1O5 [Nalmefene hydrochloride]
Ranking score [1]: 642.564 | B-score functional assay: 0.055

Cl.O.O.O=C1CC[C@@]2(O)[C@H]3Cc4ccc(O)c5c4[C@@]2(CCN3CC2CC2)[C@H]1O5 [Naltrexone hydrochloride dihydrate]
Ranking score (ranking score beside the functional and binding assay B-scores of the screen): 809.543

c1ccc2c(CC3=NCCN3)cccc2c1 [Naphazoline hydrochloride]
Ranking score [2]: 143.903 | B-score functional assay: -2.093

CCc1nn(CCCN2CCN(c3cccc(Cl)c3)CC2)c(=O)n1CCOc1ccccc1 [Nefazodone HCl]
Ranking score [2]: 227.321 | B-score functional assay: -1.389
